# ± gives the standard deviation of the averaged measurements.
# Compound: T1, O=C(O)C1(C(=O)O)CCC1.[NH2-].[NH2-].[Pt+2] [CARBOPLATIN]
# Assay: surviving fraction relative to DMSO-only wells; higher = less growth inhibition
# Settings: 100 nM; exposure time: 5 days
# Summary of the method: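 Log-phase tumour cell lines were seeded at 250–500 cells per well in 384-well plates. After 24 hours they were exposed continuously for five days to inhibitors at 0.5, 1, 5, 10, 50, 100, 500 and 1000 nM. Viability was read by CellTiter-Glo luminescence after 10 minutes at room temperature, and surviving fraction is luminescence normalised to the median of DMSO-only wells. Each line was screened three times and kept only if replicate Pearson r >0.7 and median Z' >0.3.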
row,Test System,surviving fraction
1,SCC003 HEADNECK,1.03 ± 0.035

# Same assay, conditions: 500 nM; exposure time: 5 days
row,Test System,surviving fraction
1,HS578T BREAST,0.992 ± 0.17
2,JURKAT HAEMATOPOIETIC AND LYMPHOID TISSUE,1.01 ± 0.042
3,MDAMB453 BREAST,1.01 ± 0.02
4,S68 BREAST,1.11 ± 0.21
5,SCC003 HEADNECK,1.13 ± 0.17

# Same assay, conditions: 1000 nM; exposure time: 5 days
row,Test System,surviving fraction
1,HS578T BREAST,1 ± 0.076
2,JURKAT HAEMATOPOIETIC AND LYMPHOID TISSUE,1.04 ± 0.019
3,MDAMB453 BREAST,0.993 ± 0.011
4,S68 BREAST,1.29 ± 0.11
5,SCC003 HEADNECK,0.995 ± 0.051

# Compound: CC(=O)NCC(=O)N1[C@@H]2CC[C@H]1c1ccc(Nc3ncc(C(F)(F)F)c(NC4CCC4)n3)cc12
# Assay: area under dose-response curve of surviving fraction (unscaled, Aref=0) (surviving fraction x log10(nM)); higher = more resistant
# Settings: exposure time: 5 days; dose range 0.5-1000 nM
# Summary of the method: (§1)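 Three screens per tumour cell line were run in 384-well plates at eight inhibitor concentrations from 0.5 to 1000 nM over five days. Surviving fractions, from CellTiter-Glo luminescence normalised to DMSO-only wells, were fitted with 3-parameter logistic curves in the drc R package. The reported area under the curve is the unscaled activity area. It spans log10 dose, and Aref is 0.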
row,Test System,area under dose-response curve
1,HS578T BREAST,2.72
2,JURKAT HAEMATOPOIETIC AND LYMPHOID TISSUE,2.31
3,MDAMB453 BREAST,2.73
4,S68 BREAST,2.38
5,SCC003 HEADNECK,2.69

# Compound: CC(=O)O[C@H]1C(=O)[C@@]2(C)[C@H]([C@H](OC(=O)c3ccccc3)[C@]3(O)C[C@H](OC(=O)[C@H](O)[C@@H](NC(=O)c4ccccc4)c4ccccc4)C(C)=C1C3(C)C)[C@]1(OC(C)=O)CO[C@@H]1C[C@@H]2O [PACLITAXEL]
# Assay: as above
# Settings: exposure time: 5 days; dose range 0.5-1000 nM
# Summary of the method: as §1
row,Test System,area under dose-response curve
1,HS578T BREAST,0.471
2,JURKAT HAEMATOPOIETIC AND LYMPHOID TISSUE,0.401
3,MDAMB453 BREAST,1.23
4,S68 BREAST,0.758
5,SCC003 HEADNECK,1.13

# Compound: CC(=O)c1c(C)c2cnc(Nc3ccc(N4CCNCC4)cn3)nc2n(C2CCCC2)c1=O
# Assay: as above
# Settings: exposure time: 5 days; dose range 0.5-1000 nM
# Summary of the method: as §1
row,Test System,area under dose-response curve
1,HS578T BREAST,3.49
2,MDAMB453 BREAST,3.52
3,SCC003 HEADNECK,3.56

# Compound: CC[C@@]1(O)C(=O)OCc2c1cc1n(c2=O)Cc2cc3ccccc3nc2-1 [CAMPTOTHECIN]
# Assay: as above
# Settings: exposure time: 5 days; dose range 0.5-1000 nM
# Summary of the method: as §1
row,Test System,area under dose-response curve
1,HS578T BREAST,1.81
2,JURKAT HAEMATOPOIETIC AND LYMPHOID TISSUE,0.802
3,MDAMB453 BREAST,2.11
4,S68 BREAST,1.05
5,SCC003 HEADNECK,1.77

# Compound: COCC[n+]1c2c(n(Cc3cnccn3)c1C)C(=O)c1ccccc1C2=O [YM155]
# Assay: as above
# Settings: exposure time: 5 days; dose range 0.5-1000 nM
# Summary of the method: as §1
row,Test System,area under dose-response curve
1,HS578T BREAST,2.61
2,JURKAT HAEMATOPOIETIC AND LYMPHOID TISSUE,1.3
3,MDAMB453 BREAST,1.04
4,S68 BREAST,1.4
5,SCC003 HEADNECK,1.38

# Compound: COc1cc2ncnc(Nc3ccc(F)c(Cl)c3)c2cc1OCCCN1CCOCC1 [GEFITINIB]
# Assay: as above
# Settings: exposure time: 5 days; dose range 0.5-1000 nM
# Summary of the method: as §1
row,Test System,area under dose-response curve
1,HS578T BREAST,3.1
2,JURKAT HAEMATOPOIETIC AND LYMPHOID TISSUE,3.46
3,S68 BREAST,2.99
4,SCC003 HEADNECK,2.89

# Compound: C[C@]1(O)C[C@@H](c2nc(-c3ccc4ccc(-c5ccccc5)nc4c3)c3c(N)nccn32)C1 [OSI-906]
# Assay: as above
# Settings: exposure time: 5 days; dose range 0.5-1000 nM
# Summary of the method: as §1
row,Test System,area under dose-response curve
1,HS578T BREAST,3.11
2,JURKAT HAEMATOPOIETIC AND LYMPHOID TISSUE,3.25
3,S68 BREAST,2.83
4,SCC003 HEADNECK,3.08

# Compound: Cc1ccc(-c2cc(C(F)(F)F)nn2-c2ccc(S(N)(=O)=O)cc2)cc1 [CELECOXIB]
# Assay: as above
# Settings: exposure time: 5 days; dose range 0.5-1000 nM
# Summary of the method: as §1
row,Test System,area under dose-response curve
1,HS578T BREAST,3.16
2,JURKAT HAEMATOPOIETIC AND LYMPHOID TISSUE,3.37
3,MDAMB453 BREAST,3.64
4,S68 BREAST,3.75
5,SCC003 HEADNECK,3.59

# Compound: T1, CARBOPLATIN
# Assay: as above
# Settings: exposure time: 5 days; dose range 0.5-1000 nM
# Summary of the method: as §1
row,Test System,area under dose-response curve
1,JURKAT HAEMATOPOIETIC AND LYMPHOID TISSUE,3.39
2,MDAMB453 BREAST,3.54
3,S68 BREAST,3.8

# Source: the supplement of paper PMC6045584
